Data set [1] is classed as in vitro ADME, Human. To be noted: extraction ratio, compound at 1 uM, human liver microsomes 0.5 mg/mL. As to the method: (§1) Metabolic stability of novel protease inhibitors was determined via liver microsomal stability assay. Human, mouse, SD rat, beagle dog or monkey liver microsomes were incubated with the test compound for 5 to 60 minutes at 37° C., and then the remaining parent compound was quantified by LC-MS/MS. Percentage of the test compound remaining, half-life (t1/2), in vitro intrinsic clearance (CLint, in vitro), in vivo intrinsic clearance (CLint, in vivo), hepatic clearance (CLh) and extraction ratio (ER) were calculated.
(§2) Procedure: The assay was done as described in Baranczewski, P. et al. (2006) Pharmacological Reports 58:453-472; Pearson, P. and Wienkers, L. (2008) Handbook of Drug Metabolism, 2nd Edition. CRC Pres, P.478; and Venkatesh, P. et al. (2007) Biol. Pharm. Bull. 30:1021-2024. 0.625 mg/mL liver microsomes solution was prepared by mixing 2325 μL 100 mM of K-phosphate buffer (pH 7.4) containing 2.5 mM of MgCl2, 1.25 mM of EDTA, and 75 μL microsomes (20 mg/mL) in a vial for each species.
(§3) Positive control compound: (±) Verapamil hydrochloride (Cat No.: V4629; Lot No.: MKBV4993V; Source: Sigma)
40 μL aliquots of the liver microsome/test compound mixture were dispensed into 96-well plate in triplicate and pre-warmed the mixture for 5 minutes at 37° C. Then, 10 μL of 5 mM NADPH solution was added to each well to initiate the reaction, and gently mixed. The samples were incubated at 37° C. with gentle shaking.
(§4) For 0-min samples, 200 μL of ACN containing internal standard was added to 40 μL of liver microsome/test compound mixture, followed by addition of 5 mM NADPH, and mixed gently.
(§5) For negative control: 40 μL of liver microsome/test compound mixture was incubated at 37° C. with gentle shaking for 60 minutes, followed by addition of 200 μL ACN containing 1% FA and internal standard and 10 μL of 5 mM NADPH, mixed gently.
(§6) All samples were centrifuged at 4° C. for 20 minutes at 4,000 rpm. Then, 100 μL of the supernatant from each sample was transferred to a new 96-well plate and 100 μL of ultrapure water containing 1% FA was added to each well, and mixed gently. Samples were analyzed by LC-MS/MS.
(§7) Data Analysis: Peak area ratio (Peak Area of test compound/Peak Area of internal standard) was used to represent the concentration of compound in each sample. The remaining percentage (% Remaining) at appointed time points was calculated versus the concentration of compound at 0 min. The Ln value of the remaining percentage was linearly fitted against the incubation time.
(§8) The half-life and clearance were calculated using the following equations:
(§9) Determined percent of the remaining test compound: % remaining=[area at tx/average areas at t0]×100 (1) % metabolized=[100−% remaining] (2)
(§10) Calculated the half-life (t1/2) using the slope (k) of the log-linear regression from the concentration of remaining parent compound versus time (min) relationship: t1/2 (min)=−ln 2/k. (3)
(§11) Clint, in vitro (mL/min/mg) Clint,in vitro=k/c,(c:Liver microsome concentration in the incubation system) (4)
(§12) Hepatic Clearance (CLh) CLh=Clint,in vivo*Hepatic Blood Flow (mL/min/kg)/(Hepatic Blood Flow (mL/min/kg)+Clint,in vivo) (6)
(§13) Extraction ratio (ER): ER=CLint,in vivo/(Qh+CLint,in vivo)*100,Qh:liver blood flow (7)
(In general: Liver microsomes are a subcellular fraction often used to study metabolism.)

Data set [2] concerns the target SARS-CoV-2 M^pro (3CL protease) (Severe acute respiratory syndrome coronavirus 2 (2019-nCoV) (SARS-CoV-2), UniProt P0DTD1). Format: biochemical. The note with it: read-out: SARS-CoV-2M^pro inhibition IC50.
The format of data set [3] is in vitro ADME. The note with it: extraction ratio, compound at 1 uM; for Liver Microsomal Stability (ER) SD rat: SD rat liver microsomes 0.5 mg/mL; for Liver Microsomal Stability (ER) Beagle dog: beagle dog liver microsomes 0.5 mg/mL; for Liver Microsomal Stability (ER) Monkey: monkey liver microsomes 0.5 mg/mL; for Liver Microsomal Stability (ER) Mouse: mouse liver microsomes 0.5 mg/mL. Here is the method: as §1, §2, §3
40 μL aliquots of the liver microsome/test compound mixture were dispensed into 96-well plate in triplicate and pre-warmed the mixture for 5 minutes at 37° C. Then, 10 μL of 5 mM NADPH solution was added to each well to initiate the reaction, and gently mixed. The samples were incubated at 37° C. with gentle shaking. (Final concentrations: compound=1 μM; liver microsomes protein=0.5 mg/mL; MgCl2=2 mM; EDTA=1 mM; ACN=0.1%; DMSO=0.05%).
as §4, §5, §6, §7, §8, §9, §10, §11, §12, §13

For data set [4] the following is noted: mouse oral PK, female Balb/c, 40 mg/kg single dose.
The subject of another data set is SARS-CoV-2. Description: Anti-viral in vitro PRNT assay in Vero E6 cells. To be noted: Vero E6 cells, 1000 pfu, 3 days, plaque reduction; read-out: anti-SARS-CoV2 (PRNT) in Vero E6 EC50. It counts as cell-based.
Where [5] appears, read: wild type Mpro 17 nM, substrate 40 uM.

Like-named read-outs stand apart in the source and are kept apart here.

In general, IC50 refers to the midpoint of a concentration-inhibition curve. Regarding `CC(C)C[C@H](NC(=O)c1cc2c(F)cccc2[nH]1)C(=O)N[C@@H](C[C@@H]1CCNC1=O)C(=O)CCl` [Compound A-3-d, (2S)—N-[(2S)-4-chloro-3-oxo-1-[(3S)-2-oxopyrrolidin-3-yl]butan-2-yl]-2-[(4-fluoro-1H-indol-2-yl)formamido]-4-methylpentanamide], the “Liver Microsomal Stability (ER) Human” value in data set [1] is listed as 0.84. Further, the IC50 in data set [2] was 0.335 µM. For the same compound, in data set [3], the “Liver Microsomal Stability (ER) SD rat” value was 0.77, the “Liver Microsomal Stability (ER) Beagle dog” value is recorded as 0.78, the “Liver Microsomal Stability (ER) Monkey” value worked out at 0.72 and the “Liver Microsomal Stability (ER) Mouse” value worked out at 0.58.
`Cc1cccc2[nH]c(C(=O)N[C@@H](CC(C)C)C(=O)N[C@H](C#N)C[C@@H]3CCNC3=O)cc12` [Compound A-4-b]: the “Liver Microsomal Stability (ER) Human” value in data set [1] turned out to be 0.02. Moreover, the IC50 in data set [2] (setting [5]) came out at 0.173 µM. Moreover, in data set [3], the “Liver Microsomal Stability (ER) SD rat” value came out at 0.20, the “Liver Microsomal Stability (ER) Beagle dog” value is reported as 0.06, the “Liver Microsomal Stability (ER) Monkey” value came to 0.43 and the “Liver Microsomal Stability (ER) Mouse” value came out at 0.47.
Take `Cc1cccc2[nH]c(C(=O)N[C@@H](CC(C)C)C(=O)N[C@@H](C[C@@H]3CCNC3=O)C(=O)CCl)cc12` [Compound A-4-c, (2S)—N-[(2S)-4-chloro-3-oxo-1-[(3S)-2-oxopyrrolidin-3-yl]butan-2-yl]-4-methyl-2-[(4-methyl-1H-indol-2-yl)formamido]pentanamide]: the “Liver Microsomal Stability (ER) Human” value in data set [1] turned out to be 0.67. Moreover, the IC50 in data set [2] amounted to 1.12 µM. Besides, in data set [3], the “Liver Microsomal Stability (ER) SD rat” value is reported as 0.70, the “Liver Microsomal Stability (ER) Beagle dog” value came out at 0.72, the “Liver Microsomal Stability (ER) Monkey” value is 0.69 and the “Liver Microsomal Stability (ER) Mouse” value amounted to 0.81.
Regarding `COc1cccc2[nH]c(C(=O)N[C@@H](CC(C)C)C(=O)N[C@@H](C[C@@H]3CCNC3=O)C(=O)CCl)cc12` [Compound A-5-c, (2S)—N-[(2S)-4-chloro-3-oxo-1-[(3S)-2-oxopyrrolidin-3-yl]butan-2-yl]-2-[(4-methoxy-1H-indol-2-yl)formamido]-4-methylpentanamide], in data set [1], the “Liver Microsomal Stability (ER) Human” value was 0.89. The half-inhibitory concentration (IC50) in data set [2] stood at 0.359 µM. For the same compound, in data set [3], the “Liver Microsomal Stability (ER) SD rat” value was found to be 0.74, the “Liver Microsomal Stability (ER) Beagle dog” value amounted to 0.80, the “Liver Microsomal Stability (ER) Monkey” value came to 0.79 and the “Liver Microsomal Stability (ER) Mouse” value was found to be 0.84.
For the compound `CC1(C)[C@@H]2[C@@H](C(=O)N[C@H](C#N)C[C@@H]3CCNC3=O)N(C(=O)[C@@H](NC(=O)C(F)(F)F)C3CC3)C[C@@H]21` [Compound D-2-a], in data set [1], the “Liver Microsomal Stability (ER) Human” value was found to be 0.05. In addition, in data set [2] (setting [5]), the IC50 turned out to be 0.024 µM. Further, in data set [3], the “Liver Microsomal Stability (ER) SD rat” value is 0.03, the “Liver Microsomal Stability (ER) Beagle dog” value is given as −0.04 and the “Liver Microsomal Stability (ER) Mouse” value worked out at 0.13.
`CC(C)C(=O)N[C@H](C(=O)N1C[C@H]2[C@@H]([C@H]1C(=O)N[C@H](C#N)C[C@@H]1CCNC1=O)C2(C)C)C1CC1` [Compound D-2-b]: in data set [1], the “Liver Microsomal Stability (ER) Human” value worked out at 0.08. In data set [2] (setting [5]), the concentration for half-maximal inhibition (IC50) was determined as 0.0425 µM. Also, in data set [3], the “Liver Microsomal Stability (ER) SD rat” value is listed as 0.00, the “Liver Microsomal Stability (ER) Beagle dog” value worked out at 0.06 and the “Liver Microsomal Stability (ER) Mouse” value stood at 0.10.
`CC1(C)[C@@H]2[C@@H](C(=O)N[C@H](C#N)C[C@@H]3CCNC3=O)N(C(=O)[C@@H](NC(=O)C3CC3)C3CC3)C[C@@H]21` [Compound D-2-c]: in data set [2], the IC50 worked out at 0.0697 µM.
As to `CC1(C)[C@@H]2[C@@H](C(=O)N[C@H](C#N)C[C@@H]3CCNC3=O)N(C(=O)[C@@H](NC(=O)C(F)F)C3CC3)C[C@@H]21` [Compound D-2-d], the “Liver Microsomal Stability (ER) Human” value in data set [1] turned out to be 0.03. Besides, the IC50 in data set [2] (setting [5]) came out at 0.0587 µM. For the same compound, in data set [3], the “Liver Microsomal Stability (ER) SD rat” value was found to be 0.05, the “Liver Microsomal Stability (ER) Beagle dog” value came to 0.05 and the “Liver Microsomal Stability (ER) Mouse” value is recorded as 0.18.
As for `CC1(C)[C@@H]2[C@@H](C(=O)N[C@H](C#N)C[C@@H]3CCCNC3=O)N(C(=O)[C@@H](NC(=O)C(F)F)C3CC3)C[C@@H]21` [Compound D-2-e], the “Liver Microsomal Stability (ER) Human” value in data set [1] was found to be 0.09. Also, the 50% inhibitory concentration (IC50) in data set [2] (setting [5]) came out at 0.00702 µM. Also, in data set [3], the “Liver Microsomal Stability (ER) SD rat” value is listed as 0.04, the “Liver Microsomal Stability (ER) Beagle dog” value is reported as −0.03 and the “Liver Microsomal Stability (ER) Mouse” value amounted to 0.17.
In general, Cmax refers to the peak of the concentration-time curve. One may read the Tmax as the time from dosing to the highest level. What is called EC50 is the concentration that produces a half-maximal response. As for `CC(C)(C)[C@H](NC(=O)C(F)F)C(=O)N1C[C@H]2[C@@H]([C@H]1C(=O)N[C@H](C#N)C[C@@H]1CCNC1=O)C2(C)C` [Compound D-3-b], the “Liver Microsomal Stability (ER) Human” value in data set [1] came to 0.01. Further, the “F % (bioavailability)” value in data set [4] worked out at 20.2%. In data set [4] (plasma), the “AUC0-t” value is 3768 ng·h/mL, the “Cmax” value was found to be 1190 ng/mL, the time of peak concentration (Tmax) is listed as 1 h and the “t1/2” value amounted to 1.86 h. Besides, the EC50 in the data set with SARS-CoV-2 turned out to be 3.57 µM. In data set [3], the “Liver Microsomal Stability (ER) SD rat” value is reported as 0.02, the “Liver Microsomal Stability (ER) Beagle dog” value is −0.01 and the “Liver Microsomal Stability (ER) Mouse” value is listed as 0.26.
Turning to `CC(C)C[C@H](NC(=O)c1cc2ccccc2[nH]1)C(=O)N1C[C@H]2[C@@H]([C@H]1C(=O)N[C@H](C#N)C[C@@H]1CCNC1=O)C2(C)C` [Compound G-1-b], in data set [1], the “Liver Microsomal Stability (ER) Human” value came out at 0.38. For the same compound, the half-maximal inhibitory concentration (IC50) in data set [2] (setting [5]) amounted to 0.377 µM. Further, in data set [3], the “Liver Microsomal Stability (ER) SD rat” value came to 0.33, the “Liver Microsomal Stability (ER) Beagle dog” value is 0.33, the “Liver Microsomal Stability (ER) Monkey” value is reported as 0.51 and the “Liver Microsomal Stability (ER) Mouse” value is given as 0.16.
Turning to `CC(C)C[C@H](NC(=O)c1cc2ccccc2[nH]1)C(=O)N1C[C@H]2[C@@H]([C@H]1C(=O)N[C@@H](C#N)C[C@@H]1CCNC1=O)C2(C)C` [Compound G-1-c], the “Liver Microsomal Stability (ER) Human” value in data set [1] is 0.67. Moreover, the IC50 in data set [2] (setting [5]) was found to be 0.964 µM. Moreover, in data set [3], the “Liver Microsomal Stability (ER) SD rat” value amounted to 0.30, the “Liver Microsomal Stability (ER) Beagle dog” value is listed as 0.30, the “Liver Microsomal Stability (ER) Monkey” value came to 0.58 and the “Liver Microsomal Stability (ER) Mouse” value turned out to be 0.27.
As for `CC(C)C[C@H](NC(=O)c1cc2ccccc2[nH]1)C(=O)N1C[C@H]2[C@@H]([C@H]1C(=O)N[C@H](C(=O)CCl)C(C)(C)C)C2(C)C` [Compound G-3-c], the IC50 in data set [2] (setting [5]) was > 10 µM.

For the origin of these results see patent publication US11753373B2, “Protease inhibitors as antivirals” (priority 2021, dated 2023).
